According to patent publication US9211310B2, “Use of a Chinese medicine composition in preparing medicaments for treating secondary prevention of myocardial infarction” (TASLY PHARMACEUTICAL GROUP CO., LTD, priority 2010, dated 2015):

Test system: patients after acute myocardial infarction
Test: Life quality, Seattle Angina Questionnaire (SAQ), same clinical trial
Type: in vivo, human
Text: 3508 patients who were in accordance with the diagnostic standards of AMI for 28 days to 2 years and differentiated as Qi deficiency and blood stagnation syndrome by TCM were studied. 0.5 g Chinese medicine composition prepared by the method of EXAMPLE 1 (Coded as QSYQ) was administrated half an hour after meal, 3 times per day.
There were 19 questions in the Seattle angina questionnaire (SAQ), including 5 parts: physical limitation (PL), anginal stability (AS), anginal frequency (AF), treatment satisfaction (TS) and disease perception (DP). After being given necessary explanation by doctors, the questions were answered independently by patients.
They included the overall survival time, angina pectoris score, TCM symptom score and life quality score, where angina pectoris score, TCM symptom score and life quality score were evaluated at randomization, in 1st, 3rd, 6th, 9th, 12th month after treatment and 18th month after follow-up.
All evaluation results of SAQ were described during the period of observation, and Wilcoxon rank sum test was used for inter-group comparison.
The evaluation results in the SAQ were depicted in different observations, and inter-group comparison was tested by Wilcoxon Rank-sum test.

## CC(=O)Oc1ccccc1C(=O)O [Control group, aspirine]
Baseline, FAS
  SAQ Question 1-9: Other reasons, % of cases: (5.84%)
  SAQ Question 1-9: Other reasons, cases: 99
  SAQ Question 1-9: Severely limited, % of cases: (47.34%)
  SAQ Question 1-9: Severely limited, cases: 802
  SAQ Question 1-9: Slightly limited, % of cases: (8.56%)
  SAQ Question 1-9: Slightly limited, cases: 145
Baseline, PP
  SAQ 2nd question: Clearly increased, % of cases: (3.09%)
  SAQ 2nd question: Clearly increased, cases: 46
  SAQ 2nd question: Clearly reduced, % of cases: (12.16%)
  SAQ 2nd question: Clearly reduced, cases: 181
  SAQ 2nd question: Same, % of cases: (63.00%)
  SAQ 2nd question: Same, cases: 938
  SAQ 2nd question: Slightly increased, % of cases: (6.72%)
  SAQ 2nd question: Slightly increased, cases: 100
  SAQ 2nd question: Slightly reduced, % of cases: (15.04%)
  SAQ 2nd question: Slightly reduced, cases: 224
  SAQ 3rd question: 1-2 times per week, % of cases: (15.04%)
  SAQ 3rd question: 1-2 times per week, cases: 224
  SAQ 3rd question: 1-3 times per day, % of cases: (6.72%)
  SAQ 3rd question: 1-3 times per day, cases: 100
  SAQ 3rd question: <1 time per week, % of cases: (12.16%)
  SAQ 3rd question: <1 time per week, cases: 181
  SAQ 3rd question: No onset, % of cases: (0.00%)
  SAQ 3rd question: No onset, cases: 0
  SAQ 3rd question: ≧3 times per week, % of cases: (63.00%)
  SAQ 3rd question: ≧3 times per week, cases: 938
  SAQ 3rd question: ≧4 times per day, % of cases: (3.09%)
  SAQ 3rd question: ≧4 times per day, cases: 46
  SAQ Question 1-3: Mildly limited, number of patients: 135
  SAQ Question 1-3: Mildly limited, percent of patients: (9.04%)
  SAQ Question 1-3: Moderately limited, number of patients: 44
  SAQ Question 1-3: Moderately limited, percent of patients: (2.95%)
  SAQ Question 1-3: Not limited, number of patients: 985
  SAQ Question 1-3: Not limited, percent of patients: (65.97%)
  SAQ Question 1-3: Other reasons, number of patients: 10
  SAQ Question 1-3: Other reasons, percent of patients: (0.67%)
  SAQ Question 1-3: Severely limited, number of patients: 12
  SAQ Question 1-3: Severely limited, percent of patients: (0.80%)
  SAQ Question 1-3: Slightly limited, number of patients: 307
  SAQ Question 1-3: Slightly limited, percent of patients: (20.56%)
  SAQ Question 1-4: Mildly limited, number of patients: 347
  SAQ Question 1-4: Mildly limited, percent of patients: (23.30%)
  SAQ Question 1-4: Moderately limited, number of patients: 185
  SAQ Question 1-4: Moderately limited, percent of patients: (12.42%)
  SAQ Question 1-4: Not limited, number of patients: 414
  SAQ Question 1-4: Not limited, percent of patients: (27.80%)
  SAQ Question 1-4: Other reasons, number of patients: 14
  SAQ Question 1-4: Other reasons, percent of patients: (0.94%)
  SAQ Question 1-4: Severely limited, number of patients: 51
  SAQ Question 1-4: Severely limited, percent of patients: (3.43%)
  SAQ Question 1-4: Slightly limited, number of patients: 478
  SAQ Question 1-4: Slightly limited, percent of patients: (32.10%)
  SAQ Question 1-5: Mildly limited, number of patients: 309
  SAQ Question 1-5: Mildly limited, percent of patients: (20.72%)
  SAQ Question 1-5: Moderately limited, number of patients: 210
  SAQ Question 1-5: Moderately limited, percent of patients: (14.08%)
  SAQ Question 1-5: Not limited, number of patients: 473
  SAQ Question 1-5: Not limited, percent of patients: (31.72%)
  SAQ Question 1-5: Other reasons, number of patients: 12
  SAQ Question 1-5: Other reasons, percent of patients: (0.80%)
  SAQ Question 1-5: Severely limited, number of patients: 46
  SAQ Question 1-5: Severely limited, percent of patients: (3.09%)
  SAQ Question 1-5: Slightly limited, number of patients: 441
  SAQ Question 1-5: Slightly limited, percent of patients: (29.58%)
  SAQ Question 1-9: Mildly limited, % of cases: (14.67%)
  SAQ Question 1-9: Mildly limited, cases: 213
  SAQ Question 1-9: Moderately limited, % of cases: (20.73%)
  SAQ Question 1-9: Moderately limited, cases: 301
  SAQ Question 1-9: Not limited, % of cases: (2.27%)
  SAQ Question 1-9: Not limited, cases: 33
  SAQ Question 1-9: Other reasons, % of cases: (6.34%)
  SAQ Question 1-9: Other reasons, cases: 92
  SAQ Question 1-9: Severely limited, % of cases: (48.55%)
  SAQ Question 1-9: Severely limited, cases: 705
  SAQ Question 1-9: Slightly limited, % of cases: (7.44%)
  SAQ Question 1-9: Slightly limited, cases: 108
FAS, 1 month after treatment
  8th question: Dissatisfied, patients (%): (0.34%)
